Several values for one entry are separate records, joined by “and”; a condition that tells them apart may be missing. Identical values can stand only once.
Tests used:
[1] = molecular target: Cytoplasmic tyrosine-protein kinase BMX (Homo sapiens) (UniProt P51813); test: Inhibition of human BMX assessed as percent of control at 2000 nM by KINOMEscan assay relative to control; design: scale not given: the % may be the effect or the level left
[2] = test system: Tyrosine-protein kinase ABL1 (Homo sapiens), P00519 [E255K]; test: Inhibition of phosphorylated human ABL1 E255K mutant assessed as percent of control at 2000 nM by KINOMEscan assay relative to control; design: scale not given: the % may be the effect or the level left
[3] = molecular target: Tyrosine-protein kinase JAK3 (Homo sapiens) (UniProt P52333); test: Inhibition of human JAK3 JH1 catalytic domain assessed as percent of control at 2000 nM by KINOMEscan assay relative to control; design: scale not given: the % may be the effect or the level left
[4] = molecular target: Testis-specific serine/threonine-protein kinase 3 (Homo sapiens) (UniProt Q96PN8); test: Inhibition of human TSSK3 assessed as percent of control at 2000 nM by KINOMEscan assay relative to control; design: scale not given: the % may be the effect or the level left
Chain of Testis-specific serine/threonine-protein kinase 3 (Homo sapiens) (Q96PN8 whole entry): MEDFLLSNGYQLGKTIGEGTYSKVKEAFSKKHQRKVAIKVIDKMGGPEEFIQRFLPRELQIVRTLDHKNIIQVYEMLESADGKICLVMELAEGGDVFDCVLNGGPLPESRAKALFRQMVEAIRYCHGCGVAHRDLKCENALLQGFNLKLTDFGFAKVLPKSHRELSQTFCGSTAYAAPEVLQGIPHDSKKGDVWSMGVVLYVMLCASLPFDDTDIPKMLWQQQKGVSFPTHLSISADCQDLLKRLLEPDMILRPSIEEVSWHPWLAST

[5] = molecular target: Protein odd-skipped-related 1 (Homo sapiens) (UniProt Q8TAX0); test: Inhibition of human OSR1 assessed as percent of control at 2000 nM by KINOMEscan assay relative to control; design: scale not given: the % may be the effect or the level left
[6] = molecular target: Tyrosine-protein kinase HCK (Homo sapiens) (UniProt P08631); test: Inhibition of human HCK assessed as percent of control at 2000 nM by KINOMEscan assay relative to control; design: scale not given: the % may be the effect or the level left
[7] = molecular target: Mitogen-activated protein kinase 13 (Homo sapiens) (UniProt O15264); test: Inhibition of human p38-delta assessed as percent of control at 2000 nM by KINOMEscan assay relative to control; design: scale not given: the % may be the effect or the level left
[8] = test system: Serine/threonine-protein kinase B-raf (Homo sapiens), P15056 [V600E]; test: Inhibition of human BRAF V600E mutant assessed as percent of control at 2000 nM by KINOMEscan assay relative to control; design: scale not given: the % may be the effect or the level left
[9] = test system: Phosphatidylinositol 4,5-bisphosphate 3-kinase catalytic subunit alpha isoform (Homo sapiens), P42336 [E542K]; test: Inhibition of human PIK3CA E542K mutant assessed as percent of control at 2000 nM by KINOMEscan assay relative to control; design: scale not given: the % may be the effect or the level left
[10] = molecular target: High affinity nerve growth factor receptor (Homo sapiens) (UniProt P04629); test: Inhibition of human TRKA assessed as percent of control at 2000 nM by KINOMEscan assay relative to control; design: scale not given: the % may be the effect or the level left
Chain of High affinity nerve growth factor receptor (Homo sapiens) (P04629 33-796 limits assumed): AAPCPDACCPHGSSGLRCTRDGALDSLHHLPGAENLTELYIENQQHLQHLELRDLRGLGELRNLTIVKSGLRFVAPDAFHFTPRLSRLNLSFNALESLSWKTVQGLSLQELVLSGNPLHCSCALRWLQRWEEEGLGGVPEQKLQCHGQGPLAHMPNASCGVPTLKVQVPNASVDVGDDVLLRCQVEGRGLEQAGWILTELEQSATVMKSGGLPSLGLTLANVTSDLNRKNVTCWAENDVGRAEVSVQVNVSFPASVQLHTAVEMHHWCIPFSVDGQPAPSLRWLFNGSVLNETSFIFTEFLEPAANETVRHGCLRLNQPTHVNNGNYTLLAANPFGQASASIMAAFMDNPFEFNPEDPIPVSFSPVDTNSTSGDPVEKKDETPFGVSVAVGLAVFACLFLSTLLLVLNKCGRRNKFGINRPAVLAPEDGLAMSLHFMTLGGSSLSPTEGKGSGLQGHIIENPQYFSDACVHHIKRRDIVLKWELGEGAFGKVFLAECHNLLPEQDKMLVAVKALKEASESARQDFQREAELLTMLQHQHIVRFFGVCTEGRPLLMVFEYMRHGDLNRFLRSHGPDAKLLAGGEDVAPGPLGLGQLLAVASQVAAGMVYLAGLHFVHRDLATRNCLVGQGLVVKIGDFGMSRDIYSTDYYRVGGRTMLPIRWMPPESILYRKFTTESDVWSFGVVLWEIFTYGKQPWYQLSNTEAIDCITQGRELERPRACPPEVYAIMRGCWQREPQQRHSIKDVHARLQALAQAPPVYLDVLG

[11] = molecular target: SRSF protein kinase 1 (Homo sapiens) (UniProt Q96SB4); test: Inhibition of human SRPK1 assessed as percent of control at 2000 nM by KINOMEscan assay relative to control; design: scale not given: the % may be the effect or the level left
[12] = molecular target: Fibroblast growth factor receptor 2 (Homo sapiens) (UniProt P21802); test: Inhibition of human FGFR2 assessed as percent of control at 2000 nM by KINOMEscan assay relative to control; design: scale not given: the % may be the effect or the level left
Chain of Fibroblast growth factor receptor 2 (Homo sapiens) (P21802 22-821 limits assumed): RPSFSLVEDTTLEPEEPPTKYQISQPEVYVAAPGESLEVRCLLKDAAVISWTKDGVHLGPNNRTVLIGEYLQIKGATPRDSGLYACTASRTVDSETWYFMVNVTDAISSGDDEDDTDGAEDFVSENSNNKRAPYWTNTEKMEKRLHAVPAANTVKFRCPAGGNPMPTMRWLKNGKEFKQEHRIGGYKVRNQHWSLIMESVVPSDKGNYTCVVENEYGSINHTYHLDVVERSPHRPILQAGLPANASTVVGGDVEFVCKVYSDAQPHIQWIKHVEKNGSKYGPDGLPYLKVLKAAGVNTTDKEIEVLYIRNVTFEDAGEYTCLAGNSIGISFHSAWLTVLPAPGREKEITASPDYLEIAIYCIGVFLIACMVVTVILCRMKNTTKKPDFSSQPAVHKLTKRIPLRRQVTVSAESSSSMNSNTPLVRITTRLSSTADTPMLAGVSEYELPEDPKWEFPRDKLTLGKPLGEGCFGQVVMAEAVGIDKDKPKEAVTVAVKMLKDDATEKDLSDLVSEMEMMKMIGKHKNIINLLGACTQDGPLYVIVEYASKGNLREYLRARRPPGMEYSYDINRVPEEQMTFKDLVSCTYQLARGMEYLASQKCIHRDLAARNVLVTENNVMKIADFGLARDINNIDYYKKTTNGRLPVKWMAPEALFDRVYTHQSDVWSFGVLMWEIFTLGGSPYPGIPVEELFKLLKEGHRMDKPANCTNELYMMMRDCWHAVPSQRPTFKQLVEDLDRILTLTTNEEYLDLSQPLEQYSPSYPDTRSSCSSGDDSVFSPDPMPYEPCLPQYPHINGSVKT

[13] = test system: Tyrosine-protein kinase ABL1 (Homo sapiens), P00519 [F317L]; test: Inhibition of phosphorylated human ABL1 F317L mutant assessed as percent of control at 2000 nM by KINOMEscan assay relative to control; design: scale not given: the % may be the effect or the level left
[14] = molecular target: Rhodopsin kinase GRK7 (Homo sapiens) (UniProt Q8WTQ7); test: Inhibition of human GRK7 assessed as percent of control at 2000 nM by KINOMEscan assay relative to control; design: scale not given: the % may be the effect or the level left
Chain of Rhodopsin kinase GRK7 (Homo sapiens) (Q8WTQ7 whole entry): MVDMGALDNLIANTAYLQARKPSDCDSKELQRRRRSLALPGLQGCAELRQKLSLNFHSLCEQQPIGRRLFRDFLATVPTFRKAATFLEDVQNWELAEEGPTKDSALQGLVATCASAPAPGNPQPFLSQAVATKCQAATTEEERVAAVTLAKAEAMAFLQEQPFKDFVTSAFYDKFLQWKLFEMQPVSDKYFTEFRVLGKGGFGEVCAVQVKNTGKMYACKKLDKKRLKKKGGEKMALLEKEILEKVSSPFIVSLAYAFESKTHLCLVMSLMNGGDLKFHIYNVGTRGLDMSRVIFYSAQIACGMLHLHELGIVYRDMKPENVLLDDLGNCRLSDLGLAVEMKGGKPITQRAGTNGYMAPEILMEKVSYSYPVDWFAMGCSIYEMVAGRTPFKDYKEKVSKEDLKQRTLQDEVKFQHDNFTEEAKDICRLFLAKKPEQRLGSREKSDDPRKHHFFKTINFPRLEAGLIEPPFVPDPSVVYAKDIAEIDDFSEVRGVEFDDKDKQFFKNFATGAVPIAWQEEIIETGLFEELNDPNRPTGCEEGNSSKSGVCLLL

[15] = molecular target: RAC-alpha serine/threonine-protein kinase (Homo sapiens) (UniProt P31749); test: Inhibition of human AKT1 assessed as percent of control at 2000 nM by KINOMEscan assay relative to control; design: scale not given: the % may be the effect or the level left
Chain of RAC-alpha serine/threonine-protein kinase (Homo sapiens) (P31749 whole entry): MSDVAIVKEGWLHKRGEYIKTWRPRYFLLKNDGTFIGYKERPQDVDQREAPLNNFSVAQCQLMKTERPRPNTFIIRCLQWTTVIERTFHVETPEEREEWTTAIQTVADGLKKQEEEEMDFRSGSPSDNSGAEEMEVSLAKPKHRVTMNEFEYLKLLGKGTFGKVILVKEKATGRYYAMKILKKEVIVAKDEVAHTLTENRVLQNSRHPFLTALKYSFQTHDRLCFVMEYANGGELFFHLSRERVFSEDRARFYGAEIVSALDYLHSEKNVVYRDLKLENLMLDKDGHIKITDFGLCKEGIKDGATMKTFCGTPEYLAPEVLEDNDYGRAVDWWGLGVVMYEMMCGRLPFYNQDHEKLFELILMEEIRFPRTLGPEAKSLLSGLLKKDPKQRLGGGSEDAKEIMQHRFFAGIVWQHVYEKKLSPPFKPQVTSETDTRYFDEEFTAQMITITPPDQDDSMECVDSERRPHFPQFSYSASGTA

[16] = molecular target: Macrophage colony-stimulating factor 1 receptor (Homo sapiens) (UniProt P07333); test: Inhibition of human autoinhibited CSF1R assessed as percent of control at 2000 nM by KINOMEscan assay relative to control; design: scale not given: the % may be the effect or the level left
[17] = molecular target: Tyrosine-protein kinase ABL1 (Homo sapiens) (UniProt P00519); test: Inhibition of phosphorylated human ABL1 assessed as percent of control at 2000 nM by KINOMEscan assay relative to control; design: scale not given: the % may be the effect or the level left
Chain of Tyrosine-protein kinase ABL1 (Homo sapiens) (P00519 whole entry): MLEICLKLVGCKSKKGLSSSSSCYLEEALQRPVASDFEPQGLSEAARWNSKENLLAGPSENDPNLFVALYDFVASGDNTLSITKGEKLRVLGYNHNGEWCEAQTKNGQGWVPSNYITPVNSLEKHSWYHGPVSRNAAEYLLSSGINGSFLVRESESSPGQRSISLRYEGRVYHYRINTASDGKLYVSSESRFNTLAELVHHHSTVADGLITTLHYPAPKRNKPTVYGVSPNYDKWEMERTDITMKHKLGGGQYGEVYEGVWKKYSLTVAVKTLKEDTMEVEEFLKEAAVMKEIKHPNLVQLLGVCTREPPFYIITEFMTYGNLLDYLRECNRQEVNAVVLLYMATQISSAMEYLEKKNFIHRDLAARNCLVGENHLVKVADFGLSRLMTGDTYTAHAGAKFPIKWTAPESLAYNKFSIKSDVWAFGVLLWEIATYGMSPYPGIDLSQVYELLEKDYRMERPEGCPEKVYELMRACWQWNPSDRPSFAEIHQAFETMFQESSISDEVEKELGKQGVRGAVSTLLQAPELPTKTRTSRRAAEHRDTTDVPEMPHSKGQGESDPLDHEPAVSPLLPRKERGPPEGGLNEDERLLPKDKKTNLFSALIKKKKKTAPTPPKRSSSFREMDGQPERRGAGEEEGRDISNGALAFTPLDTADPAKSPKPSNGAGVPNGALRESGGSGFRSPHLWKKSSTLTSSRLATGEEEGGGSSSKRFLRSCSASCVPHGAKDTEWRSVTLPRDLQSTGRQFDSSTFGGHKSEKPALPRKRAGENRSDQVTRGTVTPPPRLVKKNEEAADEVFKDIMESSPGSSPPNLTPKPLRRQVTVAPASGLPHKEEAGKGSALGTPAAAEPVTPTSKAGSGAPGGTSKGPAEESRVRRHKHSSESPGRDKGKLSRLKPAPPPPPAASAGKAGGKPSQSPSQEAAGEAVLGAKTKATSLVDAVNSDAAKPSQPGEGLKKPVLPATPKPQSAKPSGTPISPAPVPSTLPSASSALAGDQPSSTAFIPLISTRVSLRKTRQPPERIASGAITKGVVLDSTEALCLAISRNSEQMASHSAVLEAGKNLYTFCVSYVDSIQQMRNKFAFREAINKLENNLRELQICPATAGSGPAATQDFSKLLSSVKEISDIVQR

[18] = molecular target: 1-phosphatidylinositol 3-phosphate 5-kinase (Homo sapiens) (UniProt Q9Y2I7); test: Inhibition of human PIKFYVE assessed as percent of control at 2000 nM by KINOMEscan assay relative to control; design: scale not given: the % may be the effect or the level left
[19] = molecular target: Calcium/calmodulin-dependent protein kinase type 1D (Homo sapiens) (UniProt Q8IU85); test: Inhibition of human CAMK1D assessed as percent of control at 2000 nM by KINOMEscan assay relative to control; design: scale not given: the % may be the effect or the level left
[20] = molecular target: Protein kinase C theta type (Homo sapiens) (UniProt Q04759); test: Inhibition of human PRKCQ assessed as percent of control at 2000 nM by KINOMEscan assay relative to control; design: scale not given: the % may be the effect or the level left
[21] = molecular target: Phosphatidylinositol 4,5-bisphosphate 3-kinase catalytic subunit alpha isoform (Homo sapiens) (UniProt P42336); test: Inhibition of human PIK3CA assessed as percent of control at 2000 nM by KINOMEscan assay relative to control; design: scale not given: the % may be the effect or the level left
[22] = molecular target: Tyrosine-protein kinase JAK2 (Homo sapiens) (UniProt O60674); test: Inhibition of human JAK2 JH1 catalytic domain assessed as percent of control at 2000 nM by KINOMEscan assay relative to control; design: scale not given: the % may be the effect or the level left
[23] = molecular target: Ephrin type-A receptor 1 (Homo sapiens) (UniProt P21709); test: Inhibition of human EPHA1 assessed as percent of control at 2000 nM by KINOMEscan assay relative to control; design: scale not given: the % may be the effect or the level left
Chain of Ephrin type-A receptor 1 (Homo sapiens) (P21709 whole entry): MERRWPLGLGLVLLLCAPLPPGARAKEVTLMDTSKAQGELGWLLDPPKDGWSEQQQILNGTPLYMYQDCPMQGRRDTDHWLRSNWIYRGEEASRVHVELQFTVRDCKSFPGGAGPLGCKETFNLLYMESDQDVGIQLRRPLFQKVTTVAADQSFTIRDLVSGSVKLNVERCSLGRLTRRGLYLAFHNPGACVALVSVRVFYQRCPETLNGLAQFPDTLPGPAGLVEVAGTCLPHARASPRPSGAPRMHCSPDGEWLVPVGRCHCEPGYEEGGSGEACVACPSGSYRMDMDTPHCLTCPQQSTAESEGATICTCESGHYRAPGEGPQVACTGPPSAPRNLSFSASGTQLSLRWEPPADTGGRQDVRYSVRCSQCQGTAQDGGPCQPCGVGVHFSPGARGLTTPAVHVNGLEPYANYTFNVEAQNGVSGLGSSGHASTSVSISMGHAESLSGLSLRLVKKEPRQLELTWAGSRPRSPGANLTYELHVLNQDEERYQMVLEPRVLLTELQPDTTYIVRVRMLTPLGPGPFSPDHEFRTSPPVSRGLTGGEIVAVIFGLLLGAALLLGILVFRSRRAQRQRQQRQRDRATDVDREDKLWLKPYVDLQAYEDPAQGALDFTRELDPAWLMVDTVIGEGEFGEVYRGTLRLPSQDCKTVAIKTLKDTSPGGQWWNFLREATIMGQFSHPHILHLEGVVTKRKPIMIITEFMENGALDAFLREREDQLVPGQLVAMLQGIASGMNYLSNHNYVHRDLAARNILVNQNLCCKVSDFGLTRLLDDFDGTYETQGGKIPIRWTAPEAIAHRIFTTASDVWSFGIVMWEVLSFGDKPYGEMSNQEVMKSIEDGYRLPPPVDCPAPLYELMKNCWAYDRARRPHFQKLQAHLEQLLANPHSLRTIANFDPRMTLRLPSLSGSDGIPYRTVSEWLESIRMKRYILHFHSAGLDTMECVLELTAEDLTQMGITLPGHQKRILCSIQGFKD

[24] = molecular target: Mitotic checkpoint serine/threonine-protein kinase BUB1 (Homo sapiens) (UniProt O43683); test: Inhibition of human BUB1 assessed as percent of control at 2000 nM by KINOMEscan assay relative to control; design: scale not given: the % may be the effect or the level left
[25] = molecular target: Casein kinase I isoform delta (Homo sapiens) (UniProt P48730); settings: INHIBITOR, dose 2000.0 nM
Description: Inhibition of human CSNK1D at 2000 nM by KINOMEscan assay

[26] = molecular target: Serine/threonine-protein kinase ICK (Homo sapiens) (UniProt Q9UPZ9); test: Inhibition of human ICK assessed as percent of control at 2000 nM by KINOMEscan assay relative to control; design: scale not given: the % may be the effect or the level left
[27] = molecular target: cAMP-dependent protein kinase catalytic subunit PRKX (Homo sapiens) (UniProt P51817); test: Inhibition of human PRKX assessed as percent of control at 2000 nM by KINOMEscan assay relative to control; design: scale not given: the % may be the effect or the level left
[28] = molecular target: Ribosomal protein S6 kinase alpha-5 (Homo sapiens) (UniProt O75582); test: Inhibition of human C-terminal RPS6KA5 kinase domain 2 assessed as percent of control at 2000 nM by KINOMEscan assay relative to control; design: scale not given: the % may be the effect or the level left
[29] = test system: Receptor-type tyrosine-protein kinase FLT3 (Homo sapiens), P36888 [N841I]; test: Inhibition of human FLT3 N841I mutant assessed as percent of control at 2000 nM by KINOMEscan assay relative to control; design: scale not given: the % may be the effect or the level left
[30] = molecular target: Mitogen-activated protein kinase kinase kinase 11 (Homo sapiens) (UniProt Q16584); test: Inhibition of human MLK3 assessed as percent of control at 2000 nM by KINOMEscan assay relative to control; design: scale not given: the % may be the effect or the level left
[31] = molecular target: Dual specificity mitogen-activated protein kinase kinase 7 (Homo sapiens) (UniProt O14733); test: Inhibition of human MKK7 assessed as percent of control at 2000 nM by KINOMEscan assay relative to control; design: scale not given: the % may be the effect or the level left

With `CN(C)C(=O)c1ccc(N2CCCN(c3ccnc4sc(C(N)=O)c(N)c34)CC2)cc1` the Activity [1] was 93% and 100%, the Activity [2] was 100% and 82% and the Activity [3] was 83% and 80%. For the same molecule, the Activity [4] was 93% and 100%, the Activity [5] was 100% and 88% and the Activity [6] was 96%. The Activity [7] was 96% and 97%, the Activity [8] was 100% and 84% and the Activity [9] was 92% and 74%. The Activity [10] was 93% and 78%, the Activity [11] was 100% and 97% and the Activity [12] was 99% and 98%. The Activity [13] was 97% and 82%, the Activity [14] was 100% and 92% and the Activity [15] was 100%. For the same molecule, the Activity [16] was 88% and 83%, the Activity [17] was 90% and 77% and the Activity [18] was 91% and 98%. The Activity [19] was 87% and 93%, the Activity [20] was 90% and 87% and the Activity [21] was 100% and 79%. The Activity [22] was 100% and 93%, the Activity [23] was 92% and 95% and the Activity [24] was 88% and 80%. The inhibition [25] was greater than 65%, the Activity [26] was 84% and 66% and the Activity [27] was 94% and 95%. For the same molecule, the Activity [28] was 95% and 100%, the Activity [29] was 90% and 86% and the Activity [30] was 99% and 100%. The Activity [31] was 100% and 85%.

Reference: ChEMBL document CHEMBL4804286, “3-amino-4-(4-(4 (dimethylcarbamoyl) phenyl)-1,4-diazepan-1-yl) thieno [2,3-b] pyridine-2-carboxamide for use in cancer therapy and formulations comprising the same” (2020)
